According to ChEMBL document CHEMBL1201862, “PubChem BioAssay data set” (2004):
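1) Cells in 96-well plates. 2) Compound, 48 h, 5 concentrations. 3) Linear interpolation between surrounding doses. 4) Unreached endpoint = highest concentration. GI50: concentration for 50% inhibition of growth.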 Calls of active or inactive are those of the source. No stated cut-off is given here; in the data, active = GI50 up to about 1.1 µM and inactive = higher.

Legend:
Assay in all cases: NCI tumour cell line growth inhibition, 48 h
786-0 = tested on: 786-0
A498 = tested on: A498
A549 = tested on: A549
ACHN = tested on: ACHN
CAKI-1 = tested on: CAKI-1
CCRF-CEM = tested on: CCRF-CEM
COLO 205 = tested on: COLO 205
DMS-114 = tested on: DMS-114
DMS-273 = tested on: DMS-273
EKVX = tested on: EKVX
HCC 2998 = tested on: HCC 2998
HCT-116 = tested on: HCT-116
HCT-15 = tested on: HCT-15
HL-60 = tested on: HL-60
HOP-18 = tested on: HOP-18
HOP-62 = tested on: HOP-62
HOP-92 = tested on: HOP-92
HT-29 = tested on: HT-29
IGROV-1 = tested on: IGROV-1
K562 = tested on: K562
KM-20L2 = tested on: KM-20L2
KM12 = tested on: KM12
LOX IMVI = tested on: LOX IMVI
LXFL 529 = tested on: LXFL 529
M14 = tested on: M14
M19-MEL = tested on: M19-MEL
MOLT-4 = tested on: MOLT-4
Malme-3M = tested on: Malme-3M
NCI-H226 = tested on: NCI-H226
NCI-H23 = tested on: NCI-H23
NCI-H460 = tested on: NCI-H460
NCI-H522 = tested on: NCI-H522
OVCAR-3 = tested on: OVCAR-3
OVCAR-4 = tested on: OVCAR-4
OVCAR-5 = tested on: OVCAR-5
OVCAR-8 = tested on: OVCAR-8
RPMI-8226 = tested on: RPMI-8226
RXF 393 = tested on: RXF 393
RXF 631 = tested on: RXF 631
SF-268 = tested on: SF-268
SF-295 = tested on: SF-295
SF-539 = tested on: SF-539
SK-MEL-28 = tested on: SK-MEL-28
SK-MEL-2 = tested on: SK-MEL-2
SK-MEL-5 = tested on: SK-MEL-5
SK-OV-3 = tested on: SK-OV-3
SN12C = tested on: SN12C
SNB-19 = tested on: SNB-19
SNB-75 = tested on: SNB-75
SNB-78 = tested on: SNB-78
SR = tested on: SR
SW-620 = tested on: SW-620
TK-10 = tested on: TK-10
U-251 = tested on: U-251
UACC-257 = tested on: UACC-257
UACC-62 = tested on: UACC-62
UO-31 = tested on: UO-31
DLD-1 = tested on: DLD-1

Measured: GI50

Cc1c(C(=O)CC(=O)C(=O)Nc2cccc(C(F)(F)F)c2)[n+]([O-])c2ccccc2[n+]1[O-]
3.31 µM: HCT-15
inactive: 786-0 5.79 µM | A498 20.7 µM | A549 14.4 µM | ACHN 3.15 µM | CAKI-1 6.47 µM | CCRF-CEM 2.51 µM | COLO 205 3.33 µM | DMS-114 1.92 µM | DMS-273 3.41 µM | EKVX 5.07 µM | HCC 2998 4.72 µM | HCT-116 3.06 µM | HL-60 3.08 µM | HOP-18 11.2 µM | HOP-62 23.6 µM | HOP-92 14.3 µM | HT-29 3.79 µM | IGROV-1 2.74 µM | K562 3.8 µM | KM-20L2 3.8 µM | KM12 4.1 µM | LOX IMVI 2.86 µM | LXFL 529 4.02 µM | M14 3.37 µM | M19-MEL 1.82 µM | MOLT-4 2.71 µM | Malme-3M 4.22 µM | NCI-H226 30.8 µM | NCI-H23 7.36 µM | NCI-H460 2.97 µM | NCI-H522 2.31 µM | OVCAR-3 1.66 µM | OVCAR-4 2.42 µM | OVCAR-5 7.28 µM | OVCAR-8 2.45 µM | RPMI-8226 3.07 µM | RXF 393 11.5 µM | RXF 631 2.84 µM | SF-268 3.67 µM | SF-295 10.6 µM | SF-539 3.13 µM | SK-MEL-28 7.35 µM | SK-MEL-2 4.28 µM | SK-MEL-5 3.57 µM | SK-OV-3 18.2 µM | SN12C 3.37 µM | SNB-19 4.88 µM | SNB-75 3.04 µM | SNB-78 6.79 µM | SR 2.33 µM | SW-620 3.54 µM | TK-10 28.2 µM | U-251 4.03 µM | UACC-257 2.56 µM | UACC-62 2.76 µM | UO-31 16.3 µM

Cc1ccc(-c2cc(=O)c3cc(C)c(C)c(C(=O)O)c3o2)cc1C
inactive: 786-0 > 100 µM | A549 > 100 µM | ACHN > 100 µM | CAKI-1 28.4 µM | CCRF-CEM > 100 µM | COLO 205 > 100 µM | DLD-1 > 100 µM | DMS-114 > 100 µM | DMS-273 > 100 µM | EKVX > 100 µM | HCC 2998 > 100 µM | HCT-116 > 100 µM | HL-60 > 100 µM | HOP-18 > 100 µM | HOP-62 > 100 µM | HOP-92 > 100 µM | HT-29 > 100 µM | IGROV-1 > 100 µM | K562 > 100 µM | KM-20L2 > 100 µM | KM12 > 100 µM | LOX IMVI > 100 µM | LXFL 529 > 100 µM | M14 > 100 µM | M19-MEL > 100 µM | MOLT-4 > 100 µM | Malme-3M > 100 µM | NCI-H226 > 100 µM | NCI-H23 > 100 µM | NCI-H460 > 100 µM | NCI-H522 > 100 µM | OVCAR-3 > 100 µM | OVCAR-4 > 100 µM | OVCAR-5 > 100 µM | OVCAR-8 > 100 µM | RPMI-8226 > 100 µM | RXF 393 > 100 µM | RXF 631 > 100 µM | SF-295 > 100 µM | SF-539 > 100 µM | SK-MEL-28 > 100 µM | SK-MEL-2 > 100 µM | SK-MEL-5 > 100 µM | SK-OV-3 > 100 µM | SN12C > 100 µM | SNB-19 > 100 µM | SNB-75 > 100 µM | SNB-78 > 100 µM | SR > 100 µM | SW-620 > 100 µM | TK-10 > 100 µM | U-251 > 100 µM | UACC-257 > 100 µM | UACC-62 > 100 µM | UO-31 > 100 µM
> 100 µM: HCT-15
